In experiment [1] the test system is human melanoma cell line, LOX. Description: Melanoma test using nude mice protocol (survival, T/C). The experiment is classed as in vivo. The source says:
The present invention will now be described by way of example with reference to the accompanying drawings in which: Figures 1-4 are survival plots of cancer-bearing mice treated with the dyes of this invention, compared to a control group of such mice left untreated. In these plots, "% survival" means the percentage of the total group (treated "T" or control "C") still surviving on the day in question. The 50% data point is selected for the T/C calculation, as being the point that is statistically meaningful. Effectiveness against human cancer can be inferred by tests in the nude mouse-human xenograft model, hereinafter "nude mice protocol". […] 899-903, especially p. 889 (April 1985). Nude mice, that is, those deficient in thymic functions, bred and maintained in pathogen free conditions [see J. Natl. Cancer Inst. 51:615-619 (1973)] were used in in vivo experiments. For each experiment, nude mice from the same litter and of the same sex which were over 3 months old and weighed at least 25g were injected or implanted with cancer cells. A human melanoma cell line, LOX, was used that grows rapidly when inoculated into the peritoneal cavity of the athymic mice. Tumors which had been passaged subcutaneously in athymic mice were excised under sterile conditions and converted to a single cell suspension using a metal grid with a 4 mm mesh. Red blood cells were then lysed by incubation with 0.17 molar ammonium chloride at 4°C for 30 minutes. Cells were then scored for viability with trypan blue and 5 million viable cells made up in 0.2 ml of Dulbecco modified Eagles' medium (DME) were injected intraperitoneally (IP) into a group of male athymic Swiss nu/nu mice (day 0). The mice were then randomly allocated into treatment and control groups (5% dextrose) and treatment, by intraperitoneal injection commenced the following day. In Example 6, five mice received 5 mg/kg of the drug T-5, Table I, administered Monday, Wednesday & Friday of each week for a total of 11 injections. Five mice received the same volume of the control 5% dextrose solution on the same days. […]

Experiment [2] deals with human ovarian carcinoma line OVCAR-3. Description: Ovarian carcinoma (OVCAR-3) test using nude mice protocol (survival, T/C). In kind it is in vivo. Particulars: for T/C: female nude mice, OVCAR-3 xenograft, three injections per week for 6 weeks (Fig. 3). The text has this:
The present invention will now be described by way of example with reference to the accompanying drawings in which: Figures 1-4 are survival plots of cancer-bearing mice treated with the dyes of this invention, compared to a control group of such mice left untreated. In these plots, "% survival" means the percentage of the total group (treated "T" or control "C") still surviving on the day in question. The 50% data point is selected for the T/C calculation, as being the point that is statistically meaningful. Nude mice, that is, those deficient in thymic functions, bred and maintained in pathogen free conditions [see J. Natl. Cancer Inst. 51:615-619 (1973)] were used in in vivo experiments. For each experiment, nude mice from the same litter and of the same sex which were over 3 months old and weighed at least 25g were injected or implanted with cancer cells. Examples 6 and 7 were repeated, except they were administered to female nude mice (aged 8-12 weeks) xenografted with human ovarian carcinoma line OVCAR-3. Eight mice in Example 6, and 8 mice in Example 7 were selected for treatment with the thiopyrylium, in an amount of 2.5 and 5 mg/kg respectively, administered IP 1 day after the cancer cells were injected. This was repeated as follows: Three injections per week for 6 weeks. Eight mice were used as the control group and were injected with 0.25 ml of 5% dextrose in water.

For experiment [3], the system named is L1210 leukemia cells. Description: In vitro IC50, suspension culture, cell count by Coulter Counter. The experiment is classed as cell-based. The settings on record: compound present for 48 hours (four cell doubling times), read-out: IC50 L1210 Mouse Lymphoma. The procedure:
(§1) Although these examples were not tested in animal models, their similar efficacy in human melanoma and differentiated carcinomas is predicated from the fact they had similar in vitro results compared to T-5. The in vitro tests were run as follows, to ascertain the IC₅₀ concentrations. (IC₅₀ is the in vitro concentration that kills one-half the cell line against which the compound is tested. The smaller the concentration, the higher the toxicity.)
(§2) For the IC₅₀ values for the human lung carcinoma line, an adhering monolayer culture was used. Two days prior to plating, a number of cells obtained from the American Type Tissue Culture Collection was selected to grow as a stock, the number being that which would ensure the cells had not reached their plateau at the time of the in vitro test. On day 1 of the assay, asynchronous exponentially growing cells from this stock were suspended in a conventional complete medium comprising RPMI 1640 medium supplemented with 5% (v/v) fetal calf serum and 5% (v/v) NV serum obtained from Collaborative Research, and 20mM HEPES buffer, i.e., 4-(2-hydroxyethyl)-1-piperazineethanesulfonic acid. This was plated into a conventional 96-well tissue culture plate using a Cetus/Perkin Elmer automated pipetting device with a dual supply manifold. The cells were then incubated for 48 hours at 37°C in a humidified atmosphere containing 5% CO₂. Selected cells were then incubated under red light for 3 hours in the presence of varying amounts of the compound of interest at 37°C in a humidified incubator containing 5% CO₂. Compounds were tested over a 6-log range of concentrations. The drug treated cells were then rinsed one time with complete medium as set forth above, and incubated in complete medium the length of time appropriate to achieve four cell-doubling times (roughly 7 days for these cell lines). The medium was removed and the cells stained for 1-2 hours at 37°C with 0.1% (w/v) neutral red dye obtained from Eastman Kodak Co., dissolved in phosphate buffered saline (PBS) (without calcium or magnesium cations) at a pH of 6.85. The cells were rinsed twice with the same PBS and dried. Excess neutral red dye was eluted from each well with 50% (v/v) ethanol in 1% (v/v) aqueous glacial acetic acid. The absorbency of each well was quantitated using a Perkin-Elmer absorbence densitameter set at 540 nm. The percent of inhibition of cell growth for a given concentration of compound was calculated using the equation: [formula] where At = absorbence of the cells treated with the candidate drug, Au = absorbence of the control treated with solvent only, and Ab = absorbence of the media and well only (background). […] The plotted data was then fitted to the curve for the function: F(x) = 100 - [100(X/A)^B/(1+(X/A)^B)] where x = the concentration of the test compound, A = the IC₅₀ value (50% inhibition on the plot) and B = the exponent of the fitted function.
To determine the IC₅₀ for the L1210 leukemia cells, a suspension culture was used. The procedure for the monolayer culture was followed, except that the cells were seeded at a density of 3 X 10⁴ cells/ml in the RPMI 1640 medium supplemented this time with 10% (v/v) NV SERUM, no calf serum, and 20mM HEPES buffer, with the compound of interest already added. These were added immediately to a conventional 24-well culture plate and incubated for a four cell doubling time (48 hours for this cell line). Cell numbers were quantitated using the Model ZF Coulter Counter. F(x) was obtained from the equation: [formula] where Nt = number of treated cells detected, never less than No, Nu = number of cells detected in the control that were untreated except for the solvent, and No = number of cells initially seeded.

The subject of experiment [4] is human lung carcinoma line. Description: In vitro IC50, adhering monolayer culture, neutral red staining. The experiment is classed as cell-based. The settings on record: 3 hours drug exposure under red light, then about 7 days growth, read-out: IC50 Lung Adeno-carcinoma. The procedure: as §1, §2
Experiment [5] concerns MB49 tumor cells. Description: Mouse bladder carcinoma, tumor cells and drug given IP (survival, T/C). In kind it is in vivo. The settings on record: normal male BDFI mice, MB49 cells IP. The source says: The present invention will now be described by way of example with reference to the accompanying drawings in which: Figures 1-4 are survival plots of cancer-bearing mice treated with the dyes of this invention, compared to a control group of such mice left untreated. In these plots, "% survival" means the percentage of the total group (treated "T" or control "C") still surviving on the day in question. The 50% data point is selected for the T/C calculation, as being the point that is statistically meaningful. MB49 tumor cells, that is, mouse carcinoma cells induced by the carcinogen 7,12-dimethyl benz[a]anthracene, were obtained by conventional processes and injected intraperitoneally into normal male BDFI mice (5 million/mouse). Each drug treated group and control group had 5 mice. In example 8, 5 mg/kg of T-5 was administered 3 times per week for three weeks, starting Day 1. In Example 9, it was 3 mg/kg three times per week for 3 weeks.

Experiment [6] deals with MB49 tumor cells. Description: Mouse bladder carcinoma, tumor cells mixed with drug before instillation into the bladder (bladder weight). In kind it is in vivo. Particulars: 21 days after tumor initiation; from mean bladder weights vs controls; MB49 cells (4 X 10⁶) mixed with 0.05 mg/ml drug before instillation into the mouse bladder. The procedure: These values were calculated by dividing the difference between the mean weight of bladders from controls (water-treated animals) and mean weight of bladders of drug-treated animals by the mean weight of bladders from control animals and multiplying this fraction by 100. (In this experiment, the drug was administered by mixing the MB49 tumor cells (4 X 10⁶) with 0.05 mg/ml of the drug prior to instillation of the cell suspension into the mouse bladder.)

Where two headings read alike, the source gives them in different places. A value given as a limit tells only on which side of the number the result lay.

`CN(C)c1ccc(-c2cc(-c3ccccc3)[s+]c(-c3ccccn3)c2)cc1` [4-(4-N,N-dimethylaminophenyl-2-phenyl-6-(2-pyridyl)thiopyrylium chloride, reference compound]: in experiment [1] (comparative example, xenografted human melanoma, very similar procedures, dose not stated, also listed in the Related Application), the T/C against melanoma was found to be 227%. Besides, the “T/C against the ovarian carcinoma” value in experiment [2] (comparative example, xenografted human ovarian cancer, very similar procedures, dose not stated, also listed in the Related Application) came to 340%.
`CN(C)c1ccc(-c2cc(-c3cccc(N)c3)[s+]c(-c3cccc(N)c3)c2)cc1` [Compound T-1, 2,6-Bis(3-aminophenyl)-4-[4-(dimethyl-amino)phenyl]thiopyrylium chloride]: the IC50 (as a rule, the midpoint of a concentration-inhibition curve) in experiment [3] (Mus musculus, L1210, 48 h) came out at 38 nM; in experiment [4] (Homo sapiens), 370 nM.
Taken in the same sequence, the figures for `Nc1ccc(-c2cc(-c3ccc(N)cc3)[s+]c(-c3ccc(N)cc3)c2)cc1` [Compound T-2, 2,4,6-Tris(4-aminophenyl)thiopyrylium chloride] were 270 nM and 190 nM.
Taken in the same sequence, the figures for `Nc1ccc(-c2cc(-c3ccccc3)cc(-c3ccc(N)cc3)[s+]2)cc1` [Compound T-3, 2,6-Bis(4-aminophenyl)-4-phenylthiopyrylium chloride] were 33 nM and 17 nM.
Taken in the same sequence, the figures for `COc1ccc(-c2cc(-c3ccc(N)cc3)[s+]c(-c3ccc(N)cc3)c2)cc1` [Compound T-4, 2,6-Bis(4-aminophenyl)-4-(4-methoxyphenyl)-thiopyrylium chloride] were 10 nM and 11 nM.
Take `CN(C)c1ccc(-c2cc(-c3ccc(N)cc3)[s+]c(-c3ccc(N)cc3)c2)cc1.[Cl-]` [Compound T-5, 2,6-Bis(4-aminophenyl)-4-[4-(N,N-dimethyl-amino)phenyl]thiopyrylium chloride]: the T/C (as a rule, the result in the treated group divided by that in the control group, in per cent) in experiment [1] (male athymic Swiss nu/nu mice, LOX cells IP, 5 mg/kg IP Monday, Wednesday & Friday, 11 injections, 50% survival point (Fig. 1)) is 366%; in experiment [2] (2.5 mg/kg IP) it was greater than 450%; in experiment [2] (5 mg/kg IP), greater than 450%; in experiment [5] (3 mg/kg three times per week for 3 weeks (Example 9, Fig. 4)) it was 344%; in experiment [5] (5 mg/kg 3 times per week for three weeks (Example 8, Fig. 4)), 244%. For the same compound, the “Survival (T/C)” value in experiment [1] (male athymic Swiss nu/nu mice, LOX cells IP, 8 mg/kg IP Wednesday and Saturday for 3 weeks (Fig. 2)) came to 338%. In addition, the IC50 in experiment [3] (Mus musculus, L1210, 48 h) was 220 nM; in experiment [3] it was 140 nM; in experiment [4], 60 to 80 nM; in experiment [4] (Homo sapiens), 40 nM.
As to `CN(C)c1ccc(-c2cc(-c3ccccc3)[s+]c(-c3ccc(N(C)C)cc3)c2)cc1` [Compound T-6], in experiment [6], the “average inhibition in tumor growth” value is 21.6%.

Values taken from EP0315491A2, “Amino-substituted pyrylium dyes and uses thereof” (EASTMAN KODAK COMPANY (a New Jersey corporation), priority 1987, dated 1989).
